Measured values published in patent US20170107207A1, “AMINOPYRAZOLONE DERIVATIVE” (DAIICHI SANKYO COMPANY, LIMITED, priority 2014, published 2017).

Key:
Assay type in all cases: cell-based
[1] = test system: MDA-MB-468; assay: Cell growth inhibition test, MDA-MB-468; conditions: Homo sapiens, 72 h; MDA-MB-468, Breast cancer, 3 days, CellTiter-Glo
Experimental: (§1) A cell growth inhibition test was carried out by treating a cultured cancer cell line with a test compound for a given period and then counting the number of viable cells by CellTiter-Glo Luminescent Cell Viability Assay (manufactured by Promega Corp.).
(§2) The following cells were inoculated to a 384-well plate containing the compound prepared in advance at predetermined concentrations. […]
(§3) The cells thus inoculated were cultured at 37° C. for 3 days under 5% CO2. […] Then, luminescence intensity was measured using a plate reader.
(§4) The number of viable cells and luminescence intensity have been confirmed to correlate with each other. Therefore, the rate of cell growth was calculated according to the following expression: Rate of cell growth (T/C %) of a test compound-supplemented well=100×[(B−C)/(A−C)] wherein A represents the luminescence intensity (final culture date) of a test compound-free well; B represents the luminescence intensity (final culture date) of a test compound-containing well; and C represents the luminescence intensity (day of cell inoculation) of a well at the start of contact of the cells with the test compound.
(§5) T/C % at the concentration of each of the serially diluted test compounds was determined. […]

[2] = test system: MCF7; assay: Cell growth inhibition test, MCF7; conditions: Homo sapiens, 72 h; MCF7, Breast cancer, 3 days, CellTiter-Glo
Experimental: as §1, §2, §3, §4, §5

[3] = test system: MDA-MB-231; assay: Cell growth inhibition test, MDA-MB-231; conditions: Homo sapiens, 72 h; MDA-MB-231, Breast cancer, 3 days, CellTiter-Glo
Experimental: as §1, §2, §3, §4, §5

[4] = test system: U251; assay: Cell growth inhibition test, U251; conditions: Homo sapiens, U-251, 72 h; U251, Brain tumor Central Nerve System, 3 days, CellTiter-Glo
Experimental: as §1, §2, §3, §4, §5

[5] = test system: COLO 205; assay: Cell growth inhibition test, COLO 205; conditions: Homo sapiens, 72 h; COLO 205, Large intestine cancer, 3 days, CellTiter-Glo
Experimental: as §1, §2, §3, §4, §5

[6] = test system: OVCAR-5; assay: Cell growth inhibition test, OVCAR-5; conditions: Homo sapiens, 72 h; OVCAR-5, Ovary cancer, 3 days, CellTiter-Glo
Experimental: as §1, §2, §3, §4, §5

[7] = test system: SK-OV-3; assay: Cell growth inhibition test, SK-OV-3; conditions: Homo sapiens, 72 h; SK-OV-3, Ovary cancer, 3 days, CellTiter-Glo
Experimental: as §1, §2, §3, §4, §5

[8] = test system: SNU-1; assay: Cell growth inhibition test, SNU-1; conditions: Homo sapiens, SNU1, 72 h; SNU-1, Stomach cancer, 3 days, CellTiter-Glo
Experimental: as §1, §2, §3, §4, §5

[9] = test system: NCI-N87; assay: Cell growth inhibition test, NCI-N87; conditions: Homo sapiens, 72 h; NCI-N87, Stomach cancer, 3 days, CellTiter-Glo
Experimental: as §1, §2, §3, §4, §5

[10] = test system: FaDu; assay: Cell growth inhibition test, FaDu; conditions: Homo sapiens, 72 h, Head and neck cancer, 3 days, CellTiter-Glo
Experimental: as §1, §2, §3, §4, §5

[11] = test system: 786-0; assay: Cell growth inhibition test, 786-0; conditions: Homo sapiens, 72 h; 786-0, Kidney cancer, 3 days, CellTiter-Glo
Experimental: as §1, §2, §3, §4, §5

[12] = test system: A-498; assay: Cell growth inhibition test, A-498; conditions: Homo sapiens, A498, 72 h; A-498, Kidney cancer, 3 days, CellTiter-Glo
Experimental: as §1, §2, §3, §4, §5

[13] = test system: MOLT-3; assay: Cell growth inhibition test, MOLT-3; conditions: Homo sapiens, 72 h; MOLT-3, Leukemia, 3 days, CellTiter-Glo
Experimental: as §1, §2, §3, §4, §5

[14] = test system: RPMI 8226; assay: Cell growth inhibition test, RPMI 8226; conditions: Homo sapiens, 72 h; RPMI 8226, Multiple myeloma, 3 days, CellTiter-Glo
Experimental: as §1, §2, §3, §4, §5

[15] = test system: KARPAS 422; assay: Cell growth inhibition test, KARPAS 422; conditions: Homo sapiens, 72 h; KARPAS 422, Lymphoma, 3 days, CellTiter-Glo
Experimental: as §1, §2, §3, §4, §5

[16] = test system: Hep G2; assay: Cell growth inhibition test, Hep G2; conditions: Homo sapiens, HepG2, 72 h; Hep G2, Liver cancer, 3 days, CellTiter-Glo
Experimental: as §1, §2, §3, §4, §5

[17] = test system: CAPAN-2; assay: Cell growth inhibition test, CAPAN-2; conditions: Homo sapiens, 72 h; CAPAN-2, Pancreatic cancer, 3 days, CellTiter-Glo
Experimental: as §1, §2, §3, §4, §5

[18] = test system: A375; assay: Cell growth inhibition test, A375; conditions: Homo sapiens, A-375, 72 h; A375, Skin cancer, 3 days, CellTiter-Glo
Experimental: as §1, §2, §3, §4, §5

[19] = test system: U2 OS; assay: Cell growth inhibition test, U2 OS; conditions: Homo sapiens, U2OS, 72 h, Bone and soft tissue tumor, 3 days, CellTiter-Glo
Experimental: as §1, §2, §3, §4, §5

GI50 [1] [nM]	GI50 [2] [nM]	GI50 [3] [nM]	GI50 [4] [nM]	GI50 [5] [nM]	GI50 [6] [nM]	GI50 [7] [nM]	GI50 [8] [nM]	GI50 [11] [nM]	GI50 [13] [nM]	GI50 [15] [nM]	GI50 [18] [nM]	SMILES	GI50 [9] [nM]	GI50 [10] [nM]	GI50 [12] [nM]	GI50 [14] [nM]	GI50 [16] [nM]	GI50 [17] [nM]	GI50 [19] [nM]
170	530	350	440	310	540	510	230	680	110	200	280	CCOc1ccc(Cl)cc1C(=O)NCC(C)(C)CC(=O)Nc1c([C@H](C)CN(C)C)n(C)n(-c2ccccc2)c1=O [Example 68, 5-Chloro-N-[4-({5-[(1R)-2-(dimethylamino)-1-methylethyl]-1-methyl-3-oxo-2-phenyl-2,3-dihydro-1H-pyrazol-4-yl}amino)-2,2-dimethyl-4-oxobutyl]-2-ethoxybenzamide]	270	210	540	140	580	640	530
510	980	890	980	850	750	980	710	920	190	350	560	CCOc1ncc(Cl)cc1C(=O)NCC(C)(C)CC(=O)Nc1c([C@H](C)CN(C)C)n(C)n(-c2ccccc2)c1=O [Example 73, 5-Chloro-N-[4-({5-[(1R)-2-(dimethylamino)-1-methylethyl]-1-methyl-3-oxo-2-phenyl-2,3-dihydro-1H-pyrazol-4-yl}amino)-2,2-dimethyl-4-oxobutyl]-2-ethoxypyridine-3-carboxamide]	660	460	940	180	1100	980	920
320	750	770	800	720	570	700	580	320	150	450	260	CCOc1cc(F)c(Cl)cc1C(=O)NCC(C)(C)CC(=O)Nc1c(COC)n(C)n(-c2ccccc2)c1=O [Example 113, 5-Chloro-2-ethoxy-4-fluoro-N-(4-{[5-(methoxymethyl)-1-methyl-3-oxo-2-phenyl-2,3-dihydro-1H-pyrazol-4-yl]amino}-2,2-dimethyl-4-oxobutyl)benzamide]	530	350	430	160	380	750	640
